{"source": "patent US10766903B2", "about": "(ALMAC DISCOVERY LIMITED, priority 2016, dated 2020)", "biological_target": "USP7 (Homo sapiens (Human), UniProt Q93009)", "sequence (Q93009 whole entry)": "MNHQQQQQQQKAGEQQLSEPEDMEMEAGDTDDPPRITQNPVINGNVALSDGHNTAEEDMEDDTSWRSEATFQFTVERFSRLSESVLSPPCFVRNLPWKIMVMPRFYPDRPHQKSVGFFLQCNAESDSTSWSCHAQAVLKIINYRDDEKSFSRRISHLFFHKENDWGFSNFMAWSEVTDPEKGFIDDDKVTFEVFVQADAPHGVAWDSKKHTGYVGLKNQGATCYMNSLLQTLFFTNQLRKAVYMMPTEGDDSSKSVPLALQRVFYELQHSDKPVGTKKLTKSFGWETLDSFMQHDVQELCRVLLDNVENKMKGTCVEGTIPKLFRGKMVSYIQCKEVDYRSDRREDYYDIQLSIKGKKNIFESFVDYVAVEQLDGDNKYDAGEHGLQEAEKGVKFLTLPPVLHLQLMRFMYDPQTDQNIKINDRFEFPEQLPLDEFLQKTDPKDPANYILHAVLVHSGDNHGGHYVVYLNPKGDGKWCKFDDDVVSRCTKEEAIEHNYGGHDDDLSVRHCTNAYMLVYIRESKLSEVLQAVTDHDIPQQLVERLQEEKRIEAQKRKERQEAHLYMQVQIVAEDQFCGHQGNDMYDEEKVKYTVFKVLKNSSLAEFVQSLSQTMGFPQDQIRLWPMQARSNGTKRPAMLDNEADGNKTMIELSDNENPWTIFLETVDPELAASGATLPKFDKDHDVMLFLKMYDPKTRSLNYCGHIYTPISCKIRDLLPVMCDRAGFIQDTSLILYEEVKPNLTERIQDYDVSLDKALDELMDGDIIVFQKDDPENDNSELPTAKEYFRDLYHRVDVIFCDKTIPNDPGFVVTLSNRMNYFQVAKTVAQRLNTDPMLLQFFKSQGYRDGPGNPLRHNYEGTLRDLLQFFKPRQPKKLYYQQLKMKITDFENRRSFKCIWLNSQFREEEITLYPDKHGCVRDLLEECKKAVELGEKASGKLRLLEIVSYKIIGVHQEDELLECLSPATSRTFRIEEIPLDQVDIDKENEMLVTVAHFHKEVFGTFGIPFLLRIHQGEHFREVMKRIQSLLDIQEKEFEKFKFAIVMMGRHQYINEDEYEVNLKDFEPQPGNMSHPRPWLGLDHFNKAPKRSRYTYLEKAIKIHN", "assay": "USP7 fluorescence polarisation (FP) biochemical assay, ubiquitin-Lys-TAMRA substrate", "conditions": "average of at least duplicate experiments", "in_short": "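Full-length His6-USP7 (2.5 nM) incubated ± inhibitor (8-point dilutions, 200 to 0.1 μM before addition) in 50 mM HEPES pH 7.2, 150 mM NaCl, 0.5 mM EDTA, 5 mM DTT, 0.05% BSA, 0.05% CHAPS. Ubiquitin-Lys-TAMRA cleavage followed by FP (ex 530/em 575 nm) every 15 min for 1.5 h; normalised to no-compound control.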", "key": {"[1]": {"conditions": "Table 4, biochemical assay, read-out: USP7 IC50"}, "[2]": {"conditions": "USP7 IC50, Table 4, biochemical assay"}}, "note": "Where two headings read alike, the source gives them in different places."}
{"smiles": "CN(C)CC#Cc1c2ncn(CC3(O)CCN(C(=O)C[C@H](c4ccccc4)C(F)(F)F)CC3)c(=O)c2nn1C", "note": "[Example 135, (R)-3-(3-(Dimethylamino)prop-1-yn-1-yl)-6-((4-hydroxy-1-(4,4,4-trifluoro-3-phenylbutanoyl)piperidin-4-yl)methyl)-2-methyl-2H-pyrazolo[4,3-d]pyrimidin-7(6H)-one]", "values": [{"measurement": "IC50", "setting": "[1]", "result": "1 to 200", "unit": "µM"}]}
{"smiles": "Cn1nc2c(=O)n(CC3(O)CCN(C(=O)C[C@H](c4ccccc4)C(F)(F)F)CC3)cnc2c1C1CCCCC1", "note": "[Example 136, (R)-3-Cyclohexyl-6-((4-hydroxy-1-(4,4,4-trifluoro-3-phenylbutanoyl)piperidin-4-yl)methyl)-2-methyl-2H-pyrazolo[4,3-d]pyrimidin-7(6H)-one]", "values": [{"measurement": "IC50", "setting": "[2]", "result": "0.25 to 0.999", "unit": "µM"}]}
{"smiles": "Cn1nc2c(=O)n(CC3(O)CCN(C(=O)C[C@H](c4ccccc4)C(F)(F)F)CC3)cnc2c1-c1ccc(CN2CCOCC2)cc1", "note": "[Example 137, (R)-6-((4-Hydroxy-1-(4,4,4-trifluoro-3-phenylbutanoyl)piperidin-4-yl)methyl)-2-methyl-3-(4-(morpholinomethyl)phenyl)-2H-pyrazolo[4,3-d]pyrimidin-7(6H)-one]", "values": [{"measurement": "IC50", "setting": "[1]", "result": "< 0.25", "unit": "µM"}]}
{"smiles": "Cn1nc2c(=O)n(CC3(O)CCN(C(=O)CCC4CCC4)CC3)cnc2c1-c1ccc(CN)cc1", "note": "[Example 138, 3-(4-(Aminomethyl)phenyl)-6-((1-(3-cyclobutylpropanoyl)-4-hydroxypiperidin-4-yl)methyl)-2-methyl-2H-pyrazolo[4,3-d]pyrimidin-7(6H)-one]", "values": [{"measurement": "IC50", "setting": "[1]", "result": "0.25 to 0.999", "unit": "µM"}]}
{"smiles": "C[C@H](CC(=O)N1CCC(O)(Cn2cnc3c(-c4ccccc4)cnn3c2=O)CC1)c1ccccc1", "note": "[Example 139, (R)-3-((4-Hydroxy-1-(3-phenylbutanoyl)piperidin-4-yl)methyl)-8-phenylpyrazolo[1,5-a][1,3,5]triazin-4(3H)-one]", "values": [{"measurement": "IC50", "setting": "[1]", "result": "< 0.25", "unit": "µM"}]}
{"smiles": "C[C@H](CC(=O)N1CCC(O)(Cn2cnc(N3CCC[C@@H]3CO)cc2=O)CC1)c1ccccc1", "note": "[Example 140, 3-((4-hydroxy-1-((R)-3-phenylbutanoyl)piperidin-4-yl)methyl)-6-((R)-2-(hydroxymethyl)pyrrolidin-1-yl)pyrimidin-4(3H)-one]", "values": [{"measurement": "IC50", "setting": "[1]", "result": "1 to 200", "unit": "µM"}]}
{"smiles": "COCC1CN(c2cc(=O)n(CC3(O)CCN(C(=O)C[C@@H](C)c4ccccc4)CC3)cn2)C1", "note": "[Example 141, (R)-3-((4-hydroxy-1-(3-phenylbutanoyl)piperidin-4-yl)methyl)-6-(3-(methoxymethyl)azetidin-1-yl)pyrimidin-4(3H)-one]", "values": [{"measurement": "IC50", "setting": "[1]", "result": "1 to 200", "unit": "µM"}]}
{"smiles": "CC(C)NCCNc1cc(=O)n(CC2(O)CCN(C(=O)C[C@@H](C)c3ccccc3)CC2)cn1", "note": "[Example 142, (R)-3-((4-hydroxy-1-(3-phenylbutanoyl)piperidin-4-yl)methyl)-6-((2-(isopropylamino)ethyl)amino)pyrimidin-4(3H)-one]", "values": [{"measurement": "IC50", "setting": "[2]", "result": "0.25 to 0.999", "unit": "µM"}]}
{"smiles": "CC(=O)NCCNc1cc(=O)n(CC2(O)CCN(C(=O)C[C@@H](C)c3ccccc3)CC2)cn1", "note": "[Example 143, (R)-N-(2-((1-((4-hydroxy-1-(3-phenylbutanoyl)piperidin-4-yl)methyl)-6-oxo-1,6-dihydropyrimidin-4-yl)amino)ethyl)acetamide]", "values": [{"measurement": "IC50", "setting": "[1]", "result": "1 to 200", "unit": "µM"}]}
{"smiles": "C[C@H](CC(=O)N1CCC(O)(Cn2cnc(N3CCC(O)CC3)cc2=O)CC1)c1ccccc1", "note": "[Example 144, (R)-3-((4-hydroxy-1-(3-phenylbutanoyl)piperidin-4-yl)methyl)-6-(4-hydroxypiperidin-1-yl)pyrimidin-4(3H)-one]", "values": [{"measurement": "IC50", "setting": "[1]", "result": "1 to 200", "unit": "µM"}]}
{"smiles": "C[C@H](CC(=O)N1CCC(O)(Cn2cnc(NCCNc3nccc(C(F)(F)F)n3)cc2=O)CC1)c1ccccc1", "note": "[Example 145, (R)-3-((4-hydroxy-1-(3-phenylbutanoyl)piperidin-4-yl)methyl)-6-((2-((4-(trifluoromethyl)pyrimidin-2-yl)amino)ethyl)amino)pyrimidin-4(3H)-one]", "values": [{"measurement": "IC50", "setting": "[1]", "result": "1 to 200", "unit": "µM"}]}
{"smiles": "C[C@H](CC(=O)N1CCC(O)(Cn2cnc(NCCNc3ccccc3)cc2=O)CC1)c1ccccc1", "note": "[Example 146, (R)-3-((4-hydroxy-1-(3-phenylbutanoyl)piperidin-4-yl)methyl)-6-((2-(phenylamino)ethyl)amino)pyrimidin-4(3H)-one]", "values": [{"measurement": "IC50", "setting": "[1]", "result": "1 to 200", "unit": "µM"}]}
{"smiles": "C[C@H](CC(=O)N1CCC(O)(Cn2cnc(N3CCCC3CNC(=O)OC(C)(C)C)cc2=O)CC1)c1ccccc1", "note": "(stereo partly drawn) [Example 147, tert-butyl ((1-(1-((4-hydroxy-1-((R)-3-phenylbutanoyl)piperidin-4-yl)methyl)-6-oxo-1,6-dihydropyrimidin-4-yl)pyrrolidin-2-yl)methyl)carbamate]", "values": [{"measurement": "IC50", "setting": "[1]", "result": "1 to 200", "unit": "µM"}]}
{"smiles": "C[C@H](CC(=O)N1CCC(O)(Cn2cnc(N3CCOC(C)(C(=O)N(C)C)C3)cc2=O)CC1)c1ccccc1", "note": "(stereo partly drawn) [Example 148, 4-(1-((4-hydroxy-1-((R)-3-phenylbutanoyl)piperidin-4-yl)methyl)-6-oxo-1,6-dihydropyrimidin-4-yl)-N,N,2-trimethylmorpholine-2-carboxamide]", "values": [{"measurement": "IC50", "setting": "[1]", "result": "1 to 200", "unit": "µM"}]}
{"smiles": "C[C@H](CC(=O)N1CCC(O)(Cn2cnc(N3CCC(N4CCOCC4)C3)cc2=O)CC1)c1ccccc1", "note": "(stereo partly drawn) [Example 149, 3-((4-hydroxy-1-((R)-3-phenylbutanoyl)piperidin-4-yl)methyl)-6-(3-morpholinopyrrolidin-1-yl)pyrimidin-4(3H)-one]", "values": [{"measurement": "IC50", "setting": "[1]", "result": "1 to 200", "unit": "µM"}]}
{"smiles": "C[C@H](CC(=O)N1CCC(O)(Cn2cnc(N3CCC(C)(O)C3)cc2=O)CC1)c1ccccc1", "note": "(stereo partly drawn) [Example 150, 3-((4-hydroxy-1-((R)-3-phenylbutanoyl)piperidin-4-yl)methyl)-6-(3-hydroxy-3-methylpyrrolidin-1-yl)pyrimidin-4(3H)-one]", "values": [{"measurement": "IC50", "setting": "[1]", "result": "1 to 200", "unit": "µM"}]}
{"smiles": "C[C@H](CC(=O)N1CCC(O)(Cn2cnc(NC3CCOC3)cc2=O)CC1)c1ccccc1", "note": "(stereo partly drawn) [Example 151, 3-((4-hydroxy-1-((R)-3-phenylbutanoyl)piperidin-4-yl)methyl)-6-((tetrahydrofuran-3-yl)amino)pyrimidin-4(3H)-one]", "values": [{"measurement": "IC50", "setting": "[1]", "result": "1 to 200", "unit": "µM"}]}
{"smiles": "C[C@H](CC(=O)N1CCC(O)(Cn2cnc(N3CCC4(CCOC4)C3)cc2=O)CC1)c1ccccc1", "note": "(stereo partly drawn) [Example 152, 3-((4-hydroxy-1-((R)-3-phenylbutanoyl)piperidin-4-yl)methyl)-6-(2-oxa-7-azaspiro[4.4]nonan-7-yl)pyrimidin-4(3H)-one]", "values": [{"measurement": "IC50", "setting": "[1]", "result": "1 to 200", "unit": "µM"}]}
{"smiles": "C[C@H](CC(=O)N1CCC(O)(Cn2cnc(N3CC4CCOC4C3)cc2=O)CC1)c1ccccc1", "note": "(stereo partly drawn) [Example 153, 3-((4-hydroxy-1-((R)-3-phenylbutanoyl)piperidin-4-yl)methyl)-6-(tetrahydro-2H-furo[2,3-c]pyrrol-5(3H)-yl)pyrimidin-4(3H)-one]", "values": [{"measurement": "IC50", "setting": "[1]", "result": "1 to 200", "unit": "µM"}]}
{"smiles": "C[C@H](CC(=O)N1CCC(O)(Cn2cnc(NCc3ccnn3C)cc2=O)CC1)c1ccccc1", "note": "[Example 154, (R)-3-((4-hydroxy-1-(3-phenylbutanoyl)piperidin-4-yl)methyl)-6-(((1-methyl-1H-pyrazol-5-yl)methyl)amino)pyrimidin-4(3H)-one]", "values": [{"measurement": "IC50", "setting": "[1]", "result": "1 to 200", "unit": "µM"}]}
{"smiles": "C[C@H](CC(=O)N1CCC(O)(Cn2cnc(NC3(C)COC3)cc2=O)CC1)c1ccccc1", "note": "[Example 155, (R)-3-((4-hydroxy-1-(3-phenylbutanoyl)piperidin-4-yl)methyl)-6-((3-methyloxetan-3-yl)amino)pyrimidin-4(3H)-one]", "values": [{"measurement": "IC50", "setting": "[1]", "result": "1 to 200", "unit": "µM"}]}
{"smiles": "C[C@H](CC(=O)N1CCC(O)(Cn2cnc(N3CCC(c4ccn[nH]4)CC3)cc2=O)CC1)c1ccccc1", "note": "[Example 156, (R)-6-(4-(1H-pyrazol-5-yl)piperidin-1-yl)-3-((4-hydroxy-1-(3-phenylbutanoyl)piperidin-4-yl)methyl)pyrimidin-4(3H)-one]", "values": [{"measurement": "IC50", "setting": "[1]", "result": "1 to 200", "unit": "µM"}]}
